From patent US6686371B2, “Non-steroidal, tetracylic compounds for estrogen-related treatments” (Akzo Nobel N.V., priority 2000, dated 2004)

Columns and labels:
[1] = biological target: T1, human estrogen receptor β receptor (hERβ) (Homo sapiens, UniProt Q92731); assay: competitive binding to cytoplasmic human estrogen receptor β from recombinant CHO cells; conditions: % relative to 17β-estradiol, cytosol of recombinant CHO cells; for ERβ Binding (Potency Binding (ERβ)): Table 1; for Binding ERβ: Table 2
T1 construct: expressed in transfected cells; host or cells: Chinese hamster ovary (CHO) cells, stably co-transfected with hERβ, rat oxytocin promoter and luciferase reporter
Method: (§1) Compounds are tested for their estrogen receptor activity in a binding assay and in a transactivation assay.
(§2) Determination of competitive binding to cytoplasmic human estrogen receptor α or β from recombinant CHO cells is used to estimate the relative affinity (potency ratio) of a test compound for estrogen receptors present in the cytosol of recombinant Chinese hamster ovary (CHO) cells, stably transfected with the human estrogen receptor α (hERα) or β receptor (hERβ), as compared with estradiol (E2).

[2] = biological target: T1, human estrogen receptor β receptor (hERβ); assay: transactivation assay, estrogenic activity, recombinant CHO cells co-transfected with hERβ, rat oxytocin promoter and luciferase reporter; assay type: cell-based; conditions: for ERβ Transactivation (Potency Transactivation (ERβ)): potency % relative to 17β-estradiol, CHO cells, hERβ, luciferase reporter; for β/α ratio Transactivation: ratio of transactivation potency hERβ over hERα
Method: as §1
The estrogenic and antiestrogenic activity of compounds is determined in an in vitro bioassay with recombinant Chinese hamster ovary (CHO) cells stably co-transfected with the human estrogen receptor α (hERα) or β receptor (hERβ), the rat oxytocin promoter (RO) and the luciferase reporter gene (LUC). The estrogenic activity (potency ratio) of a test compound to stimulate the transactivation of the enzyme luciferase mediated via the estrogen receptors hERα or hERβ is compared with the standard estrogen estradiol. The antiestrogenic activity (potency ratio) of a test compound to inhibit the transactivation of the enzyme luciferase mediated via the estrogen receptors hERα or hERβ by the estrogen estradiol is compared with the standard ICI 164.384 (=(7α,17β)-N-butyl-3,17-dihydroxy-N-methylestra-1,3,5(10)-triene-7-undecanamide).

[3] = biological target: T2, human estrogen receptor α (hERα) (Homo sapiens, UniProt P03372); assay: competitive binding to cytoplasmic human estrogen receptor α from recombinant CHO cells; conditions: % relative to 17β-estradiol; cytosol of recombinant CHO cells; Table 2
T2 construct: expressed in transfected cells; host or cells: cytosol of recombinant Chinese hamster ovary (CHO) cells stably transfected with hERα
T2 sequence (P03372 1-595): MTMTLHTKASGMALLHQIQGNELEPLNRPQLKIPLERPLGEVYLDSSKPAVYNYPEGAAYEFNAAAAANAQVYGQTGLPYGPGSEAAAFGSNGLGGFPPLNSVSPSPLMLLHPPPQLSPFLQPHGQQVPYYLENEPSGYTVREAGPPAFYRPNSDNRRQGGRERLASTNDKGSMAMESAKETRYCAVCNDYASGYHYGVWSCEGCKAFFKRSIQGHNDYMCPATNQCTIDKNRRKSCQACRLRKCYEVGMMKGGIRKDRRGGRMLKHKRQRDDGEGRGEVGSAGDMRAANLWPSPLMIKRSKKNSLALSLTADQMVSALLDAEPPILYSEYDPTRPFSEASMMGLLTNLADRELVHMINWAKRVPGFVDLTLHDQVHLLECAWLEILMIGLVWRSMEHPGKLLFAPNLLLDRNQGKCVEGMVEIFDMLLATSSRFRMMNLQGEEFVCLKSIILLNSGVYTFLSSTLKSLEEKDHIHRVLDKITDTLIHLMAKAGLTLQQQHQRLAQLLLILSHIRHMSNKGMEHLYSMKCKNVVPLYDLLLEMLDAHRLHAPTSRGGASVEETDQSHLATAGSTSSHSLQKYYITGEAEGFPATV
Method: as §1, §2

T1 sequence (Q92731 whole entry): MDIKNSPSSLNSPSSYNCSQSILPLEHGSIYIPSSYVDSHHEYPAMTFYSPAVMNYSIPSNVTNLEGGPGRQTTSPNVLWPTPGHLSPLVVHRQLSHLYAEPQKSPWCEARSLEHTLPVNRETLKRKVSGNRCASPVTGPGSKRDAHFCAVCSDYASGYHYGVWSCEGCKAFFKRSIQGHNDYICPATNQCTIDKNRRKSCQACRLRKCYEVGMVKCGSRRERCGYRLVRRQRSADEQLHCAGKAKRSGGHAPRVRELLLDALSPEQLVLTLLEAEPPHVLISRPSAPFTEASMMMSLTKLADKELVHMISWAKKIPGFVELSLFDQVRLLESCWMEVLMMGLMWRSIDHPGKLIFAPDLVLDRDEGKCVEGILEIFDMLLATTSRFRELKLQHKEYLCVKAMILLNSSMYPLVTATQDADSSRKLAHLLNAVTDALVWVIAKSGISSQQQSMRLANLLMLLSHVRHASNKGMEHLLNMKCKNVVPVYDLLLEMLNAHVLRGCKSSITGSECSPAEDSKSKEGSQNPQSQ

Compound	melting point	ERβ Binding (Potency Binding (ERβ)) [1]	Binding ERβ [1]	ERβ Transactivation (Potency Transactivation (ERβ)) [2]	β/α ratio Transactivation [2]	Binding ERα [3]
CC1c2cc(O)ccc2-c2c1cc1cc(O)ccc1c2Cl (stereo not drawn) [Compound 54, 2,8-dihydroxy-5-chloro-11-methyl-11H-benzo[b]fluorene]	215 to 220 °C	–	–	–	–	–
Oc1ccc2c(c1)Cc1cc3cc(O)ccc3c(Cl)c1-2 [Compound 60, 2,8-dihydroxy-5-chloro-11H-benzo[b]fluorene]	–	+++ (>10%)	++++ (>8%)	+++ (>10%)	+++ (>30)	++ (between 1.5-3.5%)
Oc1ccc(-c2c3c(cc4ccc(O)cc24)-c2ccc(O)cc2CC3)cc1 [Compound 16a, 3,9-dihydroxy-7-(4-hydroxyphenyl)-5,6-dihydro-benz[a]anthracene]	272 °C	–	–	–	–	–
Oc1ccc2c(c1)CCc1c-2cc2ccc(O)cc2c1C1CCCC1 [Compound 16, 3,9-dihydroxy-7-cyclopentyl-5,6-dihydro-benz[a]anthracene]	233 to 235 °C	–	–	–	–	–
10-chloro-1,1-dimethyl-2,8-dihydroxy-11H-indeno[1,2-b]quinoline [Compound 7d]	–	–	–	–	–	+++ (between 3.5-8%)
CCCC(=O)Oc1ccc2c(c1)Cc1c-2nc2ccc(OC(=O)CCC)cc2c1Cl [Compound 2c, Dibutyryl Ester of 10-chloro-2,8-dihydroxy-1H-indeno[1,2-b]quinoline]	–	–	–	++ (between 4-10%)	++ (between 10-30)	–
Oc1ccc2c(c1)Cc1c-2cc2ccc(O)cc2c1Cl [Compound 67a, 2,8-dihydroxy-10-chloro-11H-benzo[b]fluorene]	–	+++ (>10%)	–	+++ (>10%)	+++ (>30)	–
Cc1c2c(cc3ccc(O)cc13)-c1ccc(O)cc1C2 [Compound 67d, 2,8-dihydroxy-10-methyl-11H-benzo[b]fluorene]	265 °C	++ (between 2-10%)	–	+ (between 0.1-4%)	++ (between 10-30)	–
CCCc1c2c(c(CCC)c3ccc(O)cc13)-c1ccc(O)cc1C2 [Compound 57, 2,8-dihydroxy-5,10-dipropyl-11H-benzo[b]fluorene]	250 °C	–	–	–	–	–
CCCC(=O)Oc1ccc2c(c1)Cc1c-2nc2ccc(OC(=O)CCC)cc2c1Br [Compound 2d, Dibutyryl Ester of 10-bromo-2,8-dihydroxy-11H-indeno[1,2-b]quinoline]	–	–	–	+ (between 0.1-4%)	++ (between 10-30)	–
Oc1ccc2c(c1)Cc1c-2cc2ccc(O)cc2c1C=C(F)F [Compound 50, 2,8-dihydroxy-10-(2,2-difluoro-ethenyl)-11H-benzo[b]fluorene]	211 to 212 °C	–	–	–	–	–
COc1ccc2c(c1)Cc1c-2nc2ccc(OC)cc2c1Br [Compound 2b, 10-bromo-2,8-dimethoxy-11H-indeno[1,2-b]quinoline]	–	++ (between 2-10%)	–	+ (between 0.1-4%)	++ (between 10-30)	–
Oc1ccc2c(c1)Cc1c-2nc2ccc(O)cc2c1Cl [Compound 7a, 10-chloro-2,8-dihydroxy-11H-indenol[1,2-b]quinoline]	–	–	+++ (between 3.5-8%)	–	–	− (<0.3%)
COc1ccc2c(c1)Cc1c-2nc2ccc(OC)cc2c1Cl [Compound 2a, 10-chloro-2,8-dimethoxy-11H-indeno[1,2-b]quinoline]	–	++ (between 2-10%)	–	++ (between 4-10%)	+ (between 3.5-10)	–
Oc1ccc2c(c1)Cc1cc3ccc(O)cc3cc1-2 [Compound 25, 2,7-dihydroxy-11H-benzo[b]fluorene]	–	++ (between 2-10%)	–	+ (between 0.1-4%)	− (<3.5)	–
Oc1ccc2c(c1)Cc1c-2nc2ccc(O)cc2c1-c1ccccc1 [Compound 5, 10-phenyl-2,8-dihydroxy-11H-indeno[1,2-b]quinoline]	–	++ (between 2-10%)	–	− (<0.1%)	–	–
Oc1ccc2c(c1)Cc1c-2cc2ccc(O)cc2c1Br [Compound 67b, 2,8-dihydroxy-10-bromo-11H-benzo[b]fluorene]	–	+++ (>10%)	–	+++ (>10%)	+++ (>30)	–
Oc1ccc2c(c1)Cc1c-2nc2ccc(O)cc2c1Br [Compound 7b, 10-bromo-2,8-dihydroxy-11H-indeno[1,2-b]quinoline]	–	–	++ (between 1.5-3.5%)	–	–	− (<0.3%)
CCc1c2c(c(Cl)c3ccc(O)cc13)-c1ccc(O)cc1C2 [Compound 40, 2,8-dihydroxy-5-chloro-10-ethyl-11H-benzo[b]fluorene]	250 to 251 °C	–	–	–	–	–
Oc1ccc2c(c1)CCc1c-2nc2ccc(O)cc2c1Cl [Compound 10, 7-chloro-3,9-dihydroxy-5,6-dihydro-benz[c]acridine]	–	–	++++ (>8%)	–	–	++++ (>8%)
Oc1ccc2c(c1)Cc1c-2cc2ccc(O)cc2c1C(F)(F)F [Compound 67e, 2,8-dihydroxy-10-trifluoromethyl-11H-benzo[b]fluorene]	–	+++ (>10%)	–	++ (between 4-10%)	++ (between 10-30)	–
CCc1c2c(c(CC)c3ccc(O)cc13)-c1ccc(O)cc1C2 [Compound 47, 2,8-dihydroxy-5,10-diethyl-11H-benzo[b]fluorene]	255 °C (dec.)	–	–	–	–	–
Oc1ccc2c(c1)Cc1c-2cc2ccc(O)cc2c1I [Compound 67c, 2,8-dihydroxy-10-iodo-11H-benzo[b]fluorene]	–	+++ (>10%)	–	+++ (>10%)	+++ (>30)	–
CCCc1c2c(c(Cl)c3ccc(O)cc13)-c1ccc(O)cc1C2 [Compound 22, 2,8-dihydroxy-5-chloro-10-propyl-11H-benzo[b]fluorene]	223 to 224 °C	–	–	–	–	–
CC(C)(C)C(=O)Oc1ccc2c(c1)Cc1c-2cc2ccc(OC(=O)C(C)(C)C)cc2c1Cl [Compound 68a, di-pivaloyl Ester of 2,8-dihydroxy-10-chloro-11H-benzo[b]fluorene]	–	–	–	++ (between 4-10%)	+++ (>30)	–
Cc1c(O)ccc2c1Cc1c-2nc2ccc(O)cc2c1Cl [Compound 7c, 10-chloro-1-methyl-2,8-dihydroxy-11H-indeno[1,2-b]quinoline]	–	–	++ (between 1.5-3.5%)	–	–	+ (between 0.1-1.5%)
Oc1ccc2nc3c(c(Cl)c2c1)-c1cccc(O)c1CC3 [Compound 8, 12-chloro-4,10-dihydroxy-5,6-dihydro-benz[a]acridine]	–	–	++ (between 1.5-3.5%)	–	–	++ (between 1.5-3.5%)
Oc1ccc2c(c1)Cc1cc3cc(O)ccc3cc1-2 [Compound 69, 2,8-dihydroxy-11H-benzo[b]fluorene]	–	++ (between 2-10%)	–	+ (between 0.1-4%)	+ (between 3.5-10)	–
